Assay results published in patent US7709223B2, “Method for detecting bacteria with chromogenic substrates for β-D-ribofuranosidase” (priority 2001, dated 2010).
Where a name gives a salt, the structure may show the parent alone.

Assays:
Assay in all cases: Hydrolysis on Columbia agar with ferric ammonium citrate
C. diphtheriae = type: cell-based, Corynebacterium diphtheriae
Procedure: (§1) The chromogenic β-D-ribofuranoside substrate was added to Columbia agar at a substrate concentration of 300 mg/l. Ferric ammonium citrate was included at 500 mg/l. All ingredients were autoclaved at 116° C. for 20 minutes to ensure sterilisation. Agar plates were then prepared in 90 mm petri dishes. The substrate caused a yellow colouration of the agar.
(§2) For each strain tested, a bacterial suspension was prepared in sterile deionised water at an inoculum of approximately 1.5×10^8 colony forming units per ml. This was achieved using a densitometer. 1 μl of each bacterial suspension was then inoculated onto each plate using a multipoint inoculator. Strains were inoculated in parallel onto Columbia agar containing ferric ammonium citrate with no substrate (negative control).
(§3) After 18 hours incubation, strains were examined visually for the presence of colour. Any strains producing a black colouration on substrate containing media but not on the negative control plates were deemed to be hydrolysing the substrate.

A. baumanii = type: cell-based; conditions: A. baumanii ATCC 19606
Procedure: as §1, §2, §3

A. calcoaceticus = type: cell-based; conditions: A. calcoaceticus ATCC 7844
Procedure: as §1, §2, §3

A. lwoffii = type: cell-based; conditions: A. lwoffii ATCC 15309
Procedure: as §1, §2, §3

[1] = tested on: Arcanobacterium haemolyticus; type: cell-based
Procedure: as §1, §2, §3

Bacillus cereus = type: cell-based; conditions: Bacillus cereus NCTC
Procedure: as §1, §2, §3

Bacillus licusniforms = type: cell-based; conditions: Bacillus licusniforms NCIMB 9375
Procedure: as §1, §2, §3

Enterococcus casseflavus = type: cell-based; conditions: Enterococcus casseflavus NCTC 12361
Procedure: as §1, §2, §3

Enterococcus durans = type: cell-based; conditions: Enterococcus durans NCTC 8307
Procedure: as §1, §2, §3

Enterococcus faecalis = type: cell-based
Procedure: as §1, §2, §3

Enterococcus faecium = type: cell-based
Procedure: as §1, §2, §3

Enterococcus mundtii = type: cell-based; conditions: Enterococcus mundtii NCTC 12363
Procedure: as §1, §2, §3

Enterococcus raffinosis = type: cell-based; conditions: Enterococcus raffinosis NCTC 13192
Procedure: as §1, §2, §3

[2] = tested on: Haemolytic streptococcus C; type: cell-based
Procedure: as §1, §2, §3

[3] = tested on: Haemolytic streptococcus G; type: cell-based
Procedure: as §1, §2, §3

Listeria seerigeri = type: cell-based; conditions: Listeria seerigeri PHLS wild
Procedure: as §1, §2, §3

P. mirabilis = type: cell-based
Procedure: as §1, §2, §3

P. penneri = type: cell-based; conditions: P. penneri PPE 1
Procedure: as §1, §2, §3

P. vulgaris = type: cell-based
Procedure: as §1, §2, §3

[4] = tested on: Providencia alcalifaciens; type: cell-based
Procedure: as §1, §2, §3

Shigella genus = type: cell-based
Procedure: as §1, §2, §3

[5] = tested on: Staphylococcus haemolyticus; type: cell-based
Procedure: as §1, §2, §3

Streptococci = type: cell-based
Procedure: as §1, §2, §3

Streptococcus agalactiae = type: cell-based; conditions: Streptococcus agalactiae NCTC 8181
Procedure: as §1, §2, §3

[6] = tested on: Streptococcus constellatus; type: cell-based; conditions: Streptococcus constellatus NCTC 11325
Procedure: as §1, §2, §3

Streptococcus gordonii = type: cell-based; conditions: Streptococcus gordonii NCTC 7865
Procedure: as §1, §2, §3

Streptococcus milleri = type: cell-based; conditions: Streptococcus milleri wild
Procedure: as §1, §2, §3

Streptococcus salivarius = type: cell-based; conditions: Streptococcus salivarius NCTC 8618
Procedure: as §1, §2, §3

Vibrio cincinnatiensis = type: cell-based; conditions: Vibrio cincinnatiensis NCTC 12012
Procedure: as §1, §2, §3

Vibrio hollisae = type: cell-based; conditions: Vibrio hollisae NCTC 11640
Procedure: as §1, §2, §3

Vibrio parahaemolyticus = type: cell-based
Procedure: as §1, §2, §3

Vibrio vulnificus = type: cell-based
Procedure: as §1, §2, §3

staphylococci = type: cell-based; conditions: all of the staphylococci
Procedure: as §1, §2, §3

SMILES: O=c1cc(-c2ccc(OC3OC(CO)C(O)C3O)c(O)c2)oc2ccccc12 [DHF-riboside, 3′,4′-Dihydroxyflavone-4′-β-D-ribofuranoside sodium salt]
- β-Ribofuranoside (hydrolysis) (C. diphtheriae; C. diphtheriae NCTC 3987): +
- β-Ribofuranoside (hydrolysis) (C. diphtheriae; C. diphtheriae NCTC 10356): ++
- β-Ribofuranoside (hydrolysis) (C. diphtheriae; C. diphtheriae NCTC 11397): ++
- β-Ribofuranoside (hydrolysis) (C. diphtheriae; Corynebacterium diphtheria NEQAS): ++
- Activity with the substrate (C. diphtheriae; Corynebacterium diphtheriae): active
- β-Riboside (hydrolysis) (A. baumanii): −
- β-Riboside (hydrolysis) (A. calcoaceticus): −
- β-Riboside (hydrolysis) (A. lwoffii): −
- Activity with the substrate ([1]; Arcanobacterium haemolyticum): active
- β-Ribofuranoside (hydrolysis) ([1]; Arcanobacterium haemolyticus NCTC 52): +
- β-Ribofuranoside (hydrolysis) (Bacillus cereus): −
- β-Ribofuranoside (hydrolysis) (Bacillus licusniforms): −
- β-Ribofuranoside (hydrolysis) (Enterococcus casseflavus): −
- β-Ribofuranoside (hydrolysis) (Enterococcus durans): −
- β-Ribofuranoside (hydrolysis) (Enterococcus faecalis; Reference No. 1): −
- β-Ribofuranoside (hydrolysis) (Enterococcus faecalis; Reference No. 2): +
- β-Ribofuranoside (hydrolysis) (Enterococcus faecalis; Reference No. 3): +
- β-Ribofuranoside (hydrolysis) (Enterococcus faecalis; Reference No. 4): +
- β-Ribofuranoside (hydrolysis) (Enterococcus faecalis; Reference No. 5): +
- β-Ribofuranoside (hydrolysis) (Enterococcus faecalis; Reference No. 6): +
- β-Ribofuranoside (hydrolysis) (Enterococcus faecalis; Reference No. 7): −
- β-Ribofuranoside (hydrolysis) (Enterococcus faecium; Enterococcus faecium 121285 - wild ′99): −
- β-Ribofuranoside (hydrolysis) (Enterococcus faecium; Enterococcus faecium, Reference No. 1): −
- β-Ribofuranoside (hydrolysis) (Enterococcus faecium; Enterococcus faecium, Reference No. 2): −
- β-Ribofuranoside (hydrolysis) (Enterococcus faecium; Enterococcus faecium, Reference No. 3): −
- β-Ribofuranoside (hydrolysis) (Enterococcus faecium; Enterococcus faecium, Reference No. 4): +
- β-Ribofuranoside (hydrolysis) (Enterococcus faecium; Enterococcus faecium, Reference No. 5): −
- β-Ribofuranoside (hydrolysis) (Enterococcus faecium; Enterococcus faecium, Reference No. 6): +
- β-Ribofuranoside (hydrolysis) (Enterococcus faecium; Enterococcus faecium, Reference No. 7): −
- β-Ribofuranoside (hydrolysis) (Enterococcus mundtii): +
- β-Ribofuranoside (hydrolysis) (Enterococcus raffinosis): +
- β-Ribofuranoside (hydrolysis) ([2]; Reference No. 1): −
- β-Ribofuranoside (hydrolysis) ([2]; Reference No. 67736): −
- β-Ribofuranoside (hydrolysis) ([2]; Reference No. 68350): −
- β-Ribofuranoside (hydrolysis) ([3]; Reference No. 1): −
- β-Ribofuranoside (hydrolysis) ([3]; Reference No. 2): −
- β-Ribofuranoside (hydrolysis) ([3]; Reference No. 3): +
- β-Ribofuranoside (hydrolysis) (Listeria seerigeri): −
- β-Riboside (hydrolysis) (P. mirabilis; P. mirabilis NCTC 10975): −
- β-Riboside (hydrolysis) (P. mirabilis; P. mirabilis PMI 1): −
- β-Riboside (hydrolysis) (P. mirabilis; P. mirabilis PMI 2): −
- β-Riboside (hydrolysis) (P. penneri): −
- β-Riboside (hydrolysis) (P. vulgaris; P. vulgaris PVU 2): −
- β-Riboside (hydrolysis) (P. vulgaris; P. vulgaris PVU 4): −
- β-Riboside (hydrolysis) (P. vulgaris; P. vulgaris PVU 5): −
- β-Riboside (hydrolysis) ([4]; Providencia alcalifaciens PAL 1): +
- β-Riboside (hydrolysis) ([4]; Providencia alcalifaciens PAL 2): −
- β-D-ribofuranosidase activity (Shigella genus): uniformly positive
- β-Ribofuranoside (hydrolysis) ([5]; Staphylococcus haemolyticus RB 66): +
- β-Ribofuranoside (hydrolysis) ([5]; Staphylococcus haemolyticus RB 67): +
- β-Ribofuranoside (hydrolysis) ([5]; Staphylococcus haemolyticus RB 68): +
- β-Ribofuranoside (hydrolysis) ([5]; Staphylococcus haemolyticus RB 69): +
- β-Ribofuranoside (hydrolysis) ([5]; Staphylococcus haemolyticus RB 70): +
- Activity with the substrate (Streptococci): almost universally negative
- β-Ribofuranoside (hydrolysis) (Streptococcus agalactiae): −
- β-Ribofuranoside (hydrolysis) [6]: −
- β-Ribofuranoside (hydrolysis) (Streptococcus gordonii): −
- β-Ribofuranoside (hydrolysis) (Streptococcus milleri): −
- β-Ribofuranoside (hydrolysis) (Streptococcus salivarius): −
- β-Riboside (hydrolysis) (Vibrio cincinnatiensis): −
- β-Riboside (hydrolysis) (Vibrio hollisae): −
- β-Riboside (hydrolysis) (Vibrio parahaemolyticus; Vibrio parahaemolyticus NCTC 10441): −
- β-Riboside (hydrolysis) (Vibrio parahaemolyticus; Vibrio parahaemolyticus NCTC 10884): −
- β-Riboside (hydrolysis) (Vibrio parahaemolyticus; Vibrio parahaemolyticus NCTC 10903): −
- β-Riboside (hydrolysis) (Vibrio parahaemolyticus; Vibrio parahaemolyticus NCTC 11344): −
- β-Riboside (hydrolysis) (Vibrio parahaemolyticus; Vibrio parahaemolyticus NCTC 12205): −
- β-Riboside (hydrolysis) (Vibrio vulnificus; Vibrio vulnificus NCTC 11066): −
- β-Riboside (hydrolysis) (Vibrio vulnificus; Vibrio vulnificus NCTC 11067): −
- Activity with the substrate (staphylococci): positive
